# Laboratory results reported in patent US20240116910A1, “Heterocycles as WIP1 Inhibitors” (PMV Pharmaceuticals, Inc., priority 2022, published 2024).
# Experiments:
# [1] = target: recombinant His-tag Wip1 full length protein (amino acids #1-605) (Homo sapiens (Human), UniProt O15297); test: Wip1 full length phosphatase enzyme FDP assay; assay type: biochemical; settings: fluorescein diphosphate (FDP) substrate, RT 2 hours, fluorescence Ex485/Em535
# Method: The Human Wip1 (2-420, aa 2-420) or Wip1 full length (aa 1-605) DNA sequence was codon optimized and synthesized by Genscript for insect cell expression. The open reading frame of Wip1(2-420) with a N-terminal-His6 affinity tag followed by a TEV cleavage site was subcloned sites into the pFastBac1 expression vector. The recombinant bacmid DNA was transfected in Sf9 insect cells for baculovirus production. After 72 hours infection, the Sf9 cells were harvested by centrifugation and resuspended in lysis buffer containing 50 mM Tris/HCl, pH 8.0, 500 mM NaCl, 20% glycerol, Benzonase 0.5% CHAPS and Roche cOmplete™ EDTA free protease inhibitors. Cells were disrupted with microfluidizer and the debris was removed by centrifugation at 185,000 g for 1 hour. The supernatant was subjected to HisTrap FF for affinity purification. Proteins were eluted with a linear gradient of 0-500 mM imidazole in HisTrap buffer containing 50 mM Tris/HCl, pH 8.0, 500 mM NaCl and 20% glycerol, 0.05% CHAPS. The eluted protein was dialyzed against dialysis buffer (20 mM MES, 100 mM NaCl, 20% glycerol, 0.5 mM TCEP, 0.05% CHAPS) followed purification via HiTrap SP HP column. The protein was eluted with a gradient of 100 mM-2 M NaCl in dialysis buffer. His6-[…] was finally concentrated and loaded onto a size-exclusion column (NiLoad 16/600 Superdex 200 pg, GE Healthcare) pre-equilibrated with 50 mM MOPS (pH 7.5), 200 mM NaCl, 20% glycerol, 1 mM TCEP, 0.05% CHAPS and 0.1 mM EGTA. The peak fractions containing purified Nis6-Wip1(2-420) were pooled and concentrated to 1.0 mg/mL and flash frozen at −80° C.
# Wip1 Length and Wip1(2-420) Phosphatase Enzyme FDP Assays.
# Test compounds (252 mM stock in DMSO) were diluted 3 folds in series in DMSO and 1.2 μl per well were added into 384-well polypropylene black plates (Nunc). Twelve μl per well of Assay Buffer (100 mM NaCl, 50 mM MOPS, pH 7.5, 0.8 mM CHAPS, 0.1 mM EGTA, 30 mM MgCl2, 0.3 mM TCEP, 0.2 mg/mL BSA) was added followed by […] per well of 50.4 nM recombinant His-tag Wip1 full length protein (amino acids #1-605) or recombinant His-tag Wip1(2-420) protein (amino acids #2-420) in Assay Buffer and the plate was incubated at RT (22° C.) for 5 min. Ten mM of fluorescein diphosphate (FDP) in DMSO was diluted to […] in Assay Buffer and […] per well was added to the plate and incubated at RT (22° C.) for 2 hours. […] per well of 64.1 mM EDTA in water were added to stop the enzyme reaction. The plate was centrifuged at 1,200 rpm (Eppendorf 5810R Plate centrifuge) for 1 minute and fluorescence intensity (Ex485/Em535) was measured on Perkin Elmer Victor Reader. EC50 values were calculated using either Prism (GraphPad) or ActivityBase software (IDBS), The IC50 results are provided in Table M.
# [2] = target: recombinant His-tag Wip1(2-420) protein (amino acids #2-420) (Homo sapiens (Human), UniProt O15297); test: Wip1(2-420) phosphatase enzyme FDP assay; assay type: biochemical; settings: fluorescein diphosphate (FDP) substrate, RT 2 hours, fluorescence Ex485/Em535; read-out: WIP1 (Truncated 2-420) FDP Assay: IC50
# recombinant His-tag Wip1(2-420) protein (amino acids #2-420), sequence (O15297 2-420): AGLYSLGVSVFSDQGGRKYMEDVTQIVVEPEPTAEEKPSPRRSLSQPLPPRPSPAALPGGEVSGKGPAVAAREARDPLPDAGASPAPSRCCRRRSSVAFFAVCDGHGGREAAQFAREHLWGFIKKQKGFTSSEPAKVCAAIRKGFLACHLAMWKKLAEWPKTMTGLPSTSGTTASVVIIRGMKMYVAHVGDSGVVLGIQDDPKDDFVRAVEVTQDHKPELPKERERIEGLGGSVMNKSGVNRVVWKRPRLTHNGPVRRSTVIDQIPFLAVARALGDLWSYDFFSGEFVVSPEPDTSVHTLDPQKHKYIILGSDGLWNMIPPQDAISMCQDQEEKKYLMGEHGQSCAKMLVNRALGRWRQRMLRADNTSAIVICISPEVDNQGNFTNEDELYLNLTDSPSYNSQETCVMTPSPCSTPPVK
# recombinant His-tag Wip1 full length protein (amino acids #1-605), sequence (O15297 whole entry, the tested form may be a part): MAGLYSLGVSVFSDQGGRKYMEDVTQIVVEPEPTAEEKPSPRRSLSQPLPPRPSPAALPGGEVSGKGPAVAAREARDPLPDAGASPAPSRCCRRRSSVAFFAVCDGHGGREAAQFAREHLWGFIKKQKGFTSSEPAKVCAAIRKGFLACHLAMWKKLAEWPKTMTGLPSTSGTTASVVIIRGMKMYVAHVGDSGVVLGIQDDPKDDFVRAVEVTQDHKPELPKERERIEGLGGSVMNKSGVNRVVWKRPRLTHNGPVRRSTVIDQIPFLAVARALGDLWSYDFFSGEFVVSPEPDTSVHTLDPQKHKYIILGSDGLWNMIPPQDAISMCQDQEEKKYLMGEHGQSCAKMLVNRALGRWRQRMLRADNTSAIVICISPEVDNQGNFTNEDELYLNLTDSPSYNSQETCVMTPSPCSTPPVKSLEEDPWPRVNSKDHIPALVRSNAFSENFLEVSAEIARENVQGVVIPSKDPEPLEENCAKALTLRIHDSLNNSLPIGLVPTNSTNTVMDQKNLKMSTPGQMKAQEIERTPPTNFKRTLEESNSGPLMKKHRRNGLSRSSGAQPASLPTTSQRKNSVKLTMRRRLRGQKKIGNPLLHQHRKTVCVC
SMILES,IC50 [1],IC50 [2]
"COc1cc(NC(=O)[C@H](CC2CCCC2)NC(=O)c2ccc([C@H](C)Nc3cc(Cl)cnc3C)s2)ccc1F [Compound 69, (2S)-2-({5-[(1S)-1-[(5-chloro-2-methylpyridin-3-yl)amino]ethyl]thiophen-2-yl}formamido)-3-cyclopentyl-N-(4-fluoro-3-methoxyphenyl)propanamide]",7 nM,4 nM
"CC[C@@H](Nc1cc(Cl)cnc1C)c1ccc(C(=O)N[C@@H](CC2CCCC2)C(=O)N[C@H]2CC2(F)F)s1 [Compound 51, (2S)-2-({5-[(1R)-1-[(5-chloro-2-methylpyridin-3-yl)amino]propyl]thiophen-2-yl}formamido)-3-cyclopentyl-N-[(1S)-2,2-difluorocyclopropyl]propanamide]",113 nM,74 nM
"Cc1ncc(Cl)cc1N[C@@H](C)c1ccc(C(=O)N[C@@H](CC2CCCC2)C(=O)NC2CC2)s1 [Compound 8, 5-[(1S)-1-[(5-chloro-2-methyl-3-pyridyl)amino]ethyl]-N-[(1S)-1-(cyclopentylmethyl)-2-(cyclopropylamino)-2-oxo-ethyl]thiophene-2-carboxamide]",11 nM,8 nM
"Cc1cc(NC(=O)[C@H](CC2CCCC2)NC(=O)c2cnc(C(C)Nc3cccc(Cl)c3)s2)cc(C)n1 (stereo partly drawn) [Compound 122, (2S)-2-[(2-{1-[(3-chlorophenyl)amino]ethyl}-1,3-thiazol-5-yl)formamido]-3-cyclopentyl-N-(2,6-dimethylpyridin-4-yl)propanamide]",62 nM,130 nM
"COC(=O)C12CC(NC(=O)[C@H](CC3CCCC3)NC(=O)c3ccc([C@H](C)Nc4cc(Cl)cnc4C)s3)(C1)C2 [Compound 19, methyl 3-[(2S)-2-({5-[(1S)-1-[(5-chloro-2-methylpyridin-3-yl)amino]ethyl]thiophen-2-yl}formamido)-3-cyclopentylpropanamido]bicyclo[1.1.1]pentane-1-carboxylate]",13 nM,11 nM
"Cc1ncc(Cl)cc1N[C@H](C)c1ccc(C(=O)N[C@@H](CC2CCCC2)C(=O)NC2CC2(F)F)s1 (stereo partly drawn) [Compound 15, (2S)-2-({5-[(1R)-1-[(5-chloro-2-methylpyridin-3-yl)amino]ethyl]thiophen-2-yl}formamido)-3-cyclopentyl-N-(2,2-difluorocyclopropyl)propanamide]",71 nM,80 nM
"Cc1ncc(Cl)cc1N[C@@H](C)c1ccc(C(=O)N[C@@H](CC2CCCC2)C(=O)N[C@H]2C[C@@H](F)C2)s1 [Compound 28, (2S)-2-({5-[(1S)-1-[(5-chloro-2-methylpyridin-3-yl)amino]ethyl]thiophen-2-yl}formamido)-3-cyclopentyl-N-[(1s,3s)-3-fluorocyclobutyl]propanamide]",7 nM,4 nM
"CNC(=O)C12CC(NC(=O)[C@H](CC3CCCC3)NC(=O)c3ccc([C@H](C)Nc4cc(Cl)cnc4C)s3)(C1)C2 [Compound 44, 3-[(2S)-2-({5-[(1S)-1-[(5-chloro-2-methylpyridin-3-yl)amino]ethyl]thiophen-2-yl}formamido)-3-cyclopentylpropanamido]-N-methylbicyclo[1.1.1]pentane-1-carboxamide]",14 nM,12 nM
"Cc1ncc(Cl)cc1N[C@@H](C)c1ccc(C(=O)N[C@H](C(=O)Nc2cnn(C)c2)C2CCCCC2)s1 [Compound 177, (2S)-2-({5-[(1S)-1-[(5-chloro-2-methylpyridin-3-yl)amino]ethyl]thiophen-2-yl}formamido)-2-cyclohexyl-N-(1-methyl-1H-pyrazol-4-yl)acetamide]",23 nM,18 nM
"C[C@@H](Nc1ccc(F)c(Cl)c1)c1ccc(C(=O)N[C@@H](CC2CCCC2)C(=O)NC2CC2)s1 [Compound 7, 5-[(1R)-1-(3-chloro-4-fluoro-anilino)ethyl]-N-[(1S)-1-(cyclopentylmethyl)-2-(cyclopropylamino)-2-oxo-ethyl]thiophene-2-carboxamide]",68 nM,80 nM
"Cc1ncc(Cl)cc1N[C@@H](C)c1ccc(C(=O)N[C@@H](CC2CCCC2)C(=O)NC23CC(C#N)(C2)C3)s1 [Compound 31, (2S)-2-({5-[(1S)-1-[(5-chloro-2-methylpyridin-3-yl)amino]ethyl]thiophen-2-yl}formamido)-N-{3-cyanobicyclo[1.1.1]pentan-1-yl}-3-cyclopentylpropanamide]",16 nM,10 nM
"CC[C@H](Nc1cc(Cl)cnc1C)c1ccc(C(=O)N[C@@H](CC2CCCC2)C(=O)NC2CC2)s1 [Compound 37, (2S)-2-({5-[(1S)-1-[(5-chloro-2-methylpyridin-3-yl)amino]propyl]thiophen-2-yl}formamido)-3-cyclopentyl-N-cyclopropylpropanamide]",9 nM,6 nM
"Cc1ncc(Cl)cc1N[C@@H](C)c1ncc(C(=O)N[C@@H](CC2CCCC2)C(=O)NC2CC2)s1 [Compound 279, (2S)-2-({2-[(1S)-1-[(5-chloro-2-methylpyridin-3-yl)amino]ethyl]-1,3-thiazol-5-yl}formamido)-3-cyclopentyl-N-cyclopropylpropanamide]",53 nM,41 nM
"Cc1ncc(Cl)cc1N[C@@H](C)c1ccc(C(=O)N[C@@H](CC2CCCC2)C(=O)NC2CC(C#N)C2)s1 (stereo partly drawn) [Compound 33, (2S)-2-({5-[(1S)-1-[(5-chloro-2-methylpyridin-3-yl)amino]ethyl]thiophen-2-yl}formamido)-N-(3-cyanocyclobutyl)-3-cyclopentylpropanamide]",11 nM,8 nM
"COc1ncc(Cl)cc1N[C@@H](C)c1ccc(C(=O)N[C@@H](CC2CCCC2)C(=O)NC23CC(C2)C3)s1 [Compound 60, (2S)-N-{bicyclo[1.1.1]pentan-1-yl}-2-({5-[(1S)-1-[(5-chloro-2-methoxypyridin-3-yl)amino]ethyl]thiophen-2-yl}formamido)-3-cyclopentylpropanamide]",7 nM,6 nM
"Cc1ncc(Cl)cc1N[C@@H](C)c1ccc(C(=O)N[C@@H](CC2CCCC2)C(=O)NC2CC(F)(F)C2)s1 [Compound 25, (2S)-2-({5-[(1S)-1-[(5-chloro-2-methylpyridin-3-yl)amino]ethyl]thiophen-2-yl}formamido)-3-cyclopentyl-N-(3,3-difluorocyclobutyl)propanamide]",8 nM,5 nM
"Cc1ncc(Cl)cc1N[C@@H](C)c1ccc(C(=O)N[C@@H](CC2CCCC2)C(=O)NC2CC3CCC(C2)O3)s1 (stereo partly drawn) [Compound 63, (2S)-2-({5-[(1S)-1-[(5-chloro-2-methylpyridin-3-yl)amino]ethyl]thiophen-2-yl}formamido)-3-cyclopentyl-N-{8-oxabicyclo[3.2.1]octan-3-yl}propanamide]",22 nM,15 nM
"C[C@H](Nc1cc(Cl)cnc1C1CC1)c1ccc(C(=O)N[C@@H](CC2CCCC2)C(=O)NC2CC2)s1 [Compound 70, (2S)-2-({5-[(1S)-1-[(5-chloro-2-cyclopropylpyridin-3-yl)amino]ethyl]thiophen-2-yl}formamido)-3-cyclopentyl-N-cyclopropylpropanamide]",8 nM,6 nM
"CC(Nc1cccc(Cl)c1)c1ncc(C(=O)N[C@@H](CC2CCCC2)C(=O)NC2CC2)s1 (stereo partly drawn) [Compound 123, (2S)-2-[(2-{1-[(3-chlorophenyl)amino]ethyl}-1,3-thiazol-5-yl)formamido]-3-cyclopentyl-N-cyclopropylpropanamide]",39 nM,159 nM
